In brackets after ≈: the same amount, converted by molar mass. Read-outs that look alike come from different tables or passages of the source.
How the values were obtained:
VREf isolates = experiment: microbe, parasite or virus in culture
Description: (§1) Initial organism identification and susceptibility determination were performed via MALDI-TOF MS (Bruker Daltonics, Billerica, MA, USA) and MicroScan Walkaway (Beckman Coulter, Brea, CA), respectively, in the clinical microbiology laboratory. Pure colonies of the VREf isolates cultured from the CSF on hospital days 33 and 57 and from blood on days 35 and 52 were sub-cultured to BD BBL chocolate II agar slants (Becton, Dickinson and Company, Sparks, MD, USA) and shipped immediately overnight to the research laboratory where all subsequent testing was performed. Identification and resistance marker detection was confirmed via the Verigene Gram-positive blood culture assay (Luminex, Northbrook, IL, USA).
Minimum inhibitory concentrations were determined in triplicate according to CLSI guidelines. Modal MIC values are reported.

VREf = experiment: microbe, parasite or virus in culture; type: cell-based, Enterococcus faecium
Description: as §1

[1] = human, in vivo; cited from earlier work
[2] = Enterococcus faecium, VREf isolate from CSF, hospital day 33, modal MIC of triplicate, CLSI guidelines
[3] = Enterococcus faecium, VREf isolate from CSF, hospital day 57, modal MIC of triplicate, CLSI guidelines
[4] = Enterococcus faecium, VREf isolate from blood, hospital day 35, modal MIC of triplicate, CLSI guidelines
[5] = Enterococcus faecium, VREf isolate from blood, hospital day 52, modal MIC of triplicate, CLSI guidelines
[6] = VREf isolate from CSF, hospital day 33, CLSI M100-S30 unless footnoted (b: CLSI vancomycin-susceptible E. faecalis; c: FDA E. faecalis; d: EUCAST v.10.0 E. faecium)
[7] = VREf isolate from CSF, hospital day 57, CLSI M100-S30 unless footnoted
[8] = VREf isolate from blood, hospital day 35, CLSI M100-S30 unless footnoted
[9] = VREf isolate from blood, hospital day 52, CLSI M100-S30 unless footnoted
[10] = VREf isolate from CSF, hospital day 33, modal MIC of triplicate, CLSI guidelines
[11] = VREf isolate from CSF, hospital day 57, modal MIC of triplicate, CLSI guidelines
[12] = VREf isolate from blood, hospital day 35, modal MIC of triplicate, CLSI guidelines
[13] = VREf isolate from blood, hospital day 52, modal MIC of triplicate, CLSI guidelines

Row | SMILES | MIC (VREf isolates; [2]) | MIC (VREf isolates; [3]) | MIC (VREf isolates; [4]) | MIC (VREf isolates; [5]) | MIC (VREf isolates) | MIC (VREf; Enterococcus faecium, VREf blood isolate returning after 11 days of daptomycin therapy, daptomycin by broth microdilution) | Interpretive Category (VREf isolates; [6]) | Interpretive Category (VREf isolates; [7]) | Interpretive Category (VREf isolates; [8]) | Interpretive Category (VREf isolates; [9]) | MIC (VREf isolates; [10]) | MIC (VREf isolates; [11]) | MIC (VREf isolates; [12]) | MIC (VREf isolates; [13]) | local laboratory susceptibility result (VREf; VREf blood isolate of hospital day 22) | susceptibility category (VREf; VREf blood isolate returning after 11 days of daptomycin therapy) | CSF penetration [1]
1 | C[C@H]1COc2c(N3CCN(C)CC3)c(F)cc3c(=O)c(C(=O)O)cn1c23 [Levofloxacin] | ≥ 8 µg/mL | ≥ 8 µg/mL | ≥ 8 µg/mL | ≥ 8 µg/mL |  |  | R | R | R | R |  |  |  |  |  |  | 
2 | CN[C@H]1C(=O)N[C@@H]2Cc3ccc(cc3)Oc3cc4cc(c3O[C@@H]3O[C@H](C(=O)O)[C@@H](O)[C@H](O)[C@H]3NC(=O)CCCCCCCCC(C)C)Oc3ccc(cc3Cl)[C@@H](O)[C@@H]3NC(=O)[C@H](NC(=O)[C@@H]4NC(=O)[C@@H](NC2=O)c2cc(cc(O)c2Cl)Oc2cc1ccc2O)c1ccc(O)c(c1)-c1c(O[C@H]2O[C@H](CO)[C@@H](O)[C@H](O)[C@@H]2O)cc(O)cc1[C@@H](C(=O)NCCCN(C)C)NC3=O [Dalbavancin] |  |  |  |  | ≥4 µg/mL |  |  |  |  |  |  |  |  |  |  |  | 
3 | C[C@@H]1O[C@@H]1P(=O)(O)O [Fosfomycin] | 64 µg/mL | 64 µg/mL | 64 µg/mL | 64 µg/mL |  |  | S | S | S | S |  |  |  |  |  |  | 
4 | O=C(N[C@H](CO)[C@H](O)c1ccc([N+](=O)[O-])cc1)C(Cl)Cl [Chloramphenicol] | ≥ 32 µg/mL | ≥ 32 µg/mL | ≥ 32 µg/mL | ≥ 32 µg/mL |  |  | R | R | R | R |  |  |  |  |  |  | 
5 | CCCCCCCCCCNCCN[C@@]1(C)C[C@H](O[C@H]2[C@H](Oc3c4cc5cc3Oc3ccc(cc3Cl)[C@@H](O)[C@@H](NC(=O)[C@@H](CC(C)C)NC)C(=O)N[C@@H](CC(N)=O)C(=O)N[C@H]5C(=O)N[C@H]3C(=O)N[C@H](C(=O)N[C@H](C(=O)O)c5cc(O)c(CNCP(=O)(O)O)c(O)c5-c5cc3ccc5O)[C@H](O)c3ccc(c(Cl)c3)O4)O[C@H](CO)[C@@H](O)[C@@H]2O)O[C@@H](C)[C@H]1O [Telavancin] |  |  |  |  |  |  |  |  |  |  | ≥4 µg/mL | ≥4 µg/mL | ≥4 µg/mL | ≥4 µg/mL |  |  | 
6 | CN[C@H](CC(C)C)C(=O)N[C@H]1C(=O)N[C@@H](CC(N)=O)C(=O)N[C@H]2C(=O)N[C@H]3C(=O)N[C@H](C(=O)N[C@H](C(=O)O)c4cc(O)cc(O)c4-c4cc3ccc4O)[C@H](O)c3ccc(c(Cl)c3)Oc3cc2cc(c3O[C@@H]2O[C@H](CO)[C@@H](O)[C@H](O)[C@H]2O[C@H]2C[C@](C)(N)[C@H](O)[C@H](C)O2)Oc2ccc(cc2Cl)[C@H]1O [Vancomycin] |  |  |  |  |  |  | R | R | R | R | ≥256 µg/mL | ≥256 µg/mL | ≥256 µg/mL | ≥256 µg/mL |  |  | 
7 | CC1(C)S[C@@H]2[C@H](NC(=O)[C@H](N)c3ccccc3)C(=O)N2[C@H]1C(=O)O [Ampicillin] | ≥ 16 µg/mL | ≥ 16 µg/mL | ≥ 16 µg/mL | ≥ 16 µg/mL |  |  | R | R | R | R |  |  |  |  |  |  | 

Continued, in another order:

Row | MIC (VREf isolates; [2]) | MIC (VREf isolates; [3]) | MIC (VREf isolates; [4]) | MIC (VREf isolates; [5]) | MIC (VREf isolates) | MIC (VREf; Enterococcus faecium, VREf blood isolate returning after 11 days of daptomycin therapy, daptomycin by broth microdilution) | SMILES | Interpretive Category (VREf isolates; [6]) | Interpretive Category (VREf isolates; [7]) | Interpretive Category (VREf isolates; [8]) | Interpretive Category (VREf isolates; [9]) | MIC (VREf isolates; [10]) | MIC (VREf isolates; [11]) | MIC (VREf isolates; [12]) | MIC (VREf isolates; [13]) | local laboratory susceptibility result (VREf; VREf blood isolate of hospital day 22) | susceptibility category (VREf; VREf blood isolate returning after 11 days of daptomycin therapy) | CSF penetration [1]
8 | > 8 µg/mL | > 8 µg/mL | > 8 µg/mL | > 8 µg/mL |  |  | Nc1nc(-n2cc(C(=O)O)c(=O)c3cc(F)c(N4CC(O)C4)c(Cl)c32)c(F)cc1F [Delafloxacin] | R | R | R | R |  |  |  |  |  |  | 
9 | 1 µg/mL | 2 µg/mL | 1 µg/mL | 2 µg/mL |  |  | C=C[C@]1(C)C[C@@H](OC(=O)CS[C@@H]2CC[C@@H](N)C[C@H]2O)[C@]2(C)[C@H](C)CC[C@]3(CCC(=O)[C@H]32)[C@@H](C)[C@@H]1O [Lefamulin] |  |  |  |  |  |  |  |  |  |  | 
10 | 16 µg/mL | 16 µg/mL | 16 µg/mL | 16 µg/mL |  | 2 µg/mL (≈ 5.93 µM) | CC(=O)NC[C@H]1CN(c2ccc(N3CCOCC3)c(F)c2)C(=O)O1 [Linezolid] | R | R | R | R |  |  |  |  | resistance | susceptible | 66–85%

From publication PMC8482274, “Inadequate Cerebrospinal Fluid Concentrations of Available Salvage Agents Further Impedes the Optimal Treatment of Multidrug-Resistant Enterococcus faecium Meningitis and Bacteremia” (Infectious Disease Reports, 2021)
